According to patent US11571416B2, “Amodiaquine analogs and methods of uses thereof” (priority 2017, dated 2023):
Read-outs that look alike come from different tables or passages of the source.

Legend:
[1] = test system: Huh7 cells; experiment: Cytotoxicity, CellTiter-Glo Luminescent Cell Viability Assay; conditions: Table 2, 24 h incubation
[2] = test system: EBOV-GFP (recombinant Ebolavirus encoding a GFP reporter gene); experiment: microbe, parasite or virus in culture; assay type: cell-based
[3] = test system: Ebolavirus; conditions: human, in vivo; cited from earlier work
[4] = test system: Ebolavirus; conditions: cited from earlier work
[5] = Cytotoxicity, CellTiter-Glo Luminescent Cell Viability Assay; conditions: human, Huh7 cells
[6] = in humans, metabolite formed by CYP2C8; cited from earlier work

Structure (SMILES)	CC50 [1] [µM]	anti-Ebolavirus activity (previous reports) [4]	CC50 at 24 h [5] [µM]	Selectivity index [2]	IC50 ([2]; Orthoebolavirus, Huh-7) [nM]	IC50 ([2]; Orthoebolavirus, Huh-7, 24 h) [nM]	other results
CCN(CC)Cc1cc(Nc2ccnc3cc(Cl)ccc23)ccc1O [Amodiaquine]	79	potent anti-Ebolavirus activity					IC50 ([2]; read-out: IC50): 2130 nM; mortality rate [3]: 50%
CCN(CC)Cc1cc(Nc2ccnc3cc(I)ccc23)ccc1O [Compound 18, 4-(7-iodoquinolin-4-ylamino)-2-diethylaminomethylphenol]	> 100		> 100	>156	640	640 ± 50	fold potency relative to amodiaquine [2]: 3.3 fold
CCCCN(CCCC)Cc1cc(Nc2ccnc3cc(Cl)ccc23)ccc1O [Compound 28, 4-(7-chloroquinolin-4-ylamino)-2-dibutylaminomethylphenol]	> 100		> 100	>139	720	720 ± 80	
Oc1ccc(Nc2ccnc3cc(I)ccc23)cc1CN1CCCCC1 [Compound 43, 4-(7-iodoquinolin-4-ylamino)-2-(1-piperidinylmethyl)phenol]			> 100	>270	370	370 ± 70	
Oc1ccc(Nc2ccnc3cc(I)ccc23)cc1CN1CCOCC1 [Compound 44, 4-(7-iodoquinolin-4-ylamino)-2-(4-morpholinylmethyl)phenol]			> 100	>63	1590	1590 ± 120	
Oc1ccc(Nc2ccnc3cc(I)ccc23)cc1CN1CCSCC1 [Compound 45, 4-(7-iodoquinolin-4-ylamino)-2-(4-thiamorpholinylmethyl)phenol]			> 100	>51	1950	1950 ± 220	
CCNCc1cc(Nc2ccnc3cc(Cl)ccc23)ccc1O [desethyl-amodiaquine]		potent anti-Ebolavirus activity					half-life [6]: 9 to 18 days
COc1ccc2nc3cc(Cl)ccc3c(Nc3cc(CN4CCCC4)c(O)c(CN4CCCC4)c3)c2n1 [pyronaridine]		anti-Ebolavirus activities					
CCN(CC)CCCC(C)Nc1c2ccc(Cl)cc2nc2ccc(OC)cc12 (stereo not shown) [quinacrine]		anti-Ebolavirus activities					
